From patent US8242115B2, “Materials and methods to potentiate cancer treatment” (Luitpold Pharmaceuticals, Inc., priority 2000, dated 2012) come the findings set out here.

Where two headings read alike, the source gives them in different places.

In one data set the target is T1, human DNA-PK (Homo sapiens, UniProt P78527).
T1 construct: The frozen HeLa cell pellet was thawed at 37° C. and immediately centrifuged; endogenous in cells; host or cells: HeLa S3 cells (ATCC CCL-2.2); Endogenous enzyme purified via S100-2 fraction, Q-Sepharose FF and SP-Sepharose FF (fraction IV)
Nature of the data set: Standard DNA-PK assay (p53 peptide phosphorylation). The format is biochemical. The method, then:
Reactions were carried out at room temperature. Reactions were started by addition of ATP and stopped by application to phosphocellulose paper. Reaction products spotted onto phosphocellulose paper were washed five times with a total volume of at least 250 mL 10% acetic acid or 150 mM phosphoric acid. The paper was air dried and radioactivity was determined in a Beckman LS6000IC scintillation counter.

Data set [1] deals with human colon carcinoma cell line HCT116. As to the kind of experiment: cells. The format is cell-based. The note with it: for GI50: Homo sapiens. On the procedure: Cells plated at a density of 5,000 to 20,000 per well in 96-well microtiter plates were grown in RMPI 1640 containing 10% FBS, 100 U/mL penicillin and 100 μg/mL streptomycin, for 18 h at 37° C. in a humidified incubator with 5% CO2. Cells tested included ACHN, 786-0, HCT-116, SW620, SK-MEL-5, SK-MEL-28, A549, H322, OVCAR-3, SK-OV-3, MCF-7, MDA-MB-231, MOLT4, HL60, SNB-19, PC-3. Cells were treated with media containing chemotherapeutic drugs alone or with media containing chemotherapeutic drugs and a DNA-PK inhibitor of the invention, 1-(2-hydroxy-4-morpholin-4-yl-phenyl)-ethanone. Cells were incubated for two days before growth was measured using a tetrazolium dye assay (MTS). Chemotherapeutic drugs included bleomycin etoposide, vinblastine, doxorubicin, paclitaxel, cisplatin, chlorambucil, cyclophosphamide, 5-fluorouracil, cytosine-arabinoside, 6-mercaptoguanine and methotrexate (all purchased from Sigma). The drug concentration necessary to inhibit cell growth to 50% of untreated control cells was defined as the GI50.

Data set [2] concerns Colon carcinoma cells (HCT116).
Where [3] appears, read: read-out: IC50 (nM) DNA-PK Assay.
[4] abbreviates: with 1-(2-hydroxy-4-morpholin-4-yl-phenyl)-ethanone.

The IC50 is the concentration needed to halve the response being measured. `Nc1cc(NN2CCOCC2)ccc1[N+](=O)[O-]` [Example 16, N^1-Morpholin-4-yl-4-nitrobenzene-1,3-diamine]: the half-maximal inhibitory concentration (IC50) on human DNA-PK (setting [3]) is 1000 nM.

With `Nc1cc(N2CCNCC2)ccc1[N+](=O)[O-]` [Example 20, 2-Nitro-5-piperazin-1-yl-phenylamine], the concentration for half-maximal inhibition (IC50) at human DNA-PK (setting [3]) was determined as 10000 nM.

For the compound `O=C(O)c1ccc(N2CCOCC2)cc1O` [Example 29, 2-Hydroxy-4-morpholin-4-yl-benzoic Acid], the IC50 at human DNA-PK (setting [3]) is 500 nM.

Consider `COC(=O)c1ccc(N2CCOCC2)cc1O` [Example 30, 2-Hydroxy-4-morpholin-4-yl-benzoic Acid Methyl Ester], for which, at human DNA-PK (setting [3]), the IC50 worked out at 500 nM.

In the case of `O=[N+]([O-])c1ccc(N2CCOCC2)cc1O` [Example 33, 5-Morpholin-4-yl-2-nitro-phenol], on human DNA-PK (setting [3]), the 50% inhibitory concentration (IC50) worked out at 2000 nM.

As to `CCC(=O)c1ccc(N2CCOCC2)cc1O` [Example 35, 1-(2-Hydroxy-4-morpholin-4-yl-phenyl)-propan-1-one], the IC50 at human DNA-PK (setting [3]) came to 120 nM.

With `CC(C)CC(=O)c1ccc(N2CCOCC2)cc1O` [Example 36, 1-(2-Hydroxy-4-morpholin-4-yl-phenyl)-3-methyl-butan-1-one], the half-inhibitory concentration (IC50) at human DNA-PK (setting [3]) stood at 150 nM.

As to `O=C(c1ccccc1)c1ccc(N2CCOCC2)cc1O` [Example 37, 1-(2-Hydroxy-4-morpholin-4-yl-phenyl)-1-phenyl-methanone], the concentration for half-maximal inhibition (IC50) on human DNA-PK (setting [3]) was found to be 120 nM.

As to `O=C(c1ccc(N2CCOCC2)cc1O)C(F)(F)F` [Example 38, 2,2,2-Trifluoro-1-(2-hydroxy-4-morpholin-4-yl-phenyl)-ethanone], the IC50 on human DNA-PK (setting [3]) was found to be 250 nM.

Take `CC(=O)c1ccc(N2CCOCC2)c(Cl)c1O` [Example 42 B, 1-(3-Chloro-2-hydroxy-4-morpholin-4-yl-phenyl)-ethanone]: the IC50 on human DNA-PK (setting [3]) was 14000 nM.

As to `CC(=O)c1cc(F)c(N2CCOCC2)cc1O` [Example 43 C, 1-(5-Fluoro-2-hydroxy-4-morpholin-4-yl-phenyl)-ethanone], at human DNA-PK (setting [3]), the IC50 is 1500 nM.

Take `CC(=O)c1ccc(N2CCOCC2)c(F)c1O` [Example 43 D, 1-(3-Fluoro-2-hydroxy-4-morpholin-4-yl-phenyl)-ethanone]: on human DNA-PK (setting [3]), the IC50 came out at 240 nM.

In the case of `COc1cc(N2CCOCC2)ccc1C=O` [Example 46 A, 2-Methoxy-4-morpholin-4-yl-benzaldehyde], the IC50 at human DNA-PK (setting [3]) stood at 10000 nM.

As to `COC(=O)c1cc(N2CCOCC2)ccc1O` [Example 47, 2-Hydroxy-5-morpholin-4-yl-benzoic Acid Methyl Ester], the IC50 at human DNA-PK (setting [3]) is 40000 nM.

On to `O/N=C/c1ccc(N2CCOCC2)cc1O` [Example 48, 2-((Hydroxyimino)methyl)-5-morpholin-4-yl-phenol], for which, on human DNA-PK (setting [3]), the IC50 turned out to be 1000 nM.

For the compound `N/N=C/c1ccc(N2CCOCC2)cc1O` [Example 49, 2-Hydrazonomethyl-5-morpholin-4-yl-phenol], the IC50 at human DNA-PK (setting [3]) turned out to be 1000 nM.

The term melting point denotes the temperature of the solid-liquid transition. For `O=C(O)C(F)(F)F.O=C(O)c1ccc(CN2CCOCC2)cc1O` [Example 52, 2-Hydroxy-4-morpholin-4-ylmethyl-benzoic Acid Trifluoroacetate], the melting point lay in the range of 138 to 146 °C.

By GI50 is commonly meant the concentration giving 50% growth inhibition. Turning to `O=C(O)CCCc1ccc(N(CCCl)CCCl)cc1` [chlorambucil], the GI50 in data set [1] (HCT-116, read-out: GI50, chemotherapeutic drug alone) was determined as 120000 nM; in data set [1] (HCT-116, read-out: GI50, in the presence of DNA-PK inhibitor), 14000 nM.

Consider `C[C@@]12c3ccc4c(c3C(=O)c3occ(c31)C(=O)C[C@H]2O)CCC4=O` [demethoxyviridin, reference compound], for which, at human DNA-PK (standard kinase reaction, read-out: IC50, enzyme activity inhibited), the IC50 amounted to 5 nM.

Turning to `COc1cc([C@@H]2c3cc4c(cc3[C@@H](O[C@@H]3O[C@@H]5CO[C@@H](C)O[C@H]5[C@H](O)[C@H]3O)[C@H]3COC(=O)[C@H]23)OCO4)cc(OC)c1O` [etoposide, reference compound], the GI50 in data set [1] (HCT-116, with 1-(2-hydroxy-4-morpholin-4-yl-phenyl)-ethanone, read-out: GI50, in the presence of DNA-PK inhibitor) came out at 14000 nM. For the same compound, the GI50 in data set [1] (HCT-116, without DNA-PK inhibitor, read-out: GI50, chemotherapeutic drug alone) was 120000 nM. In addition, in data set [2] (24 h etoposide), the “LD50 of etoposide without DNA-PK inhibitor” value was determined as 1.1 µM and the “LD90 of etoposide without DNA-PK inhibitor” value stood at 2.9 µM. Moreover, in data set [2] (setting [4]), the “LD50 of etoposide with DNA-PK inhibitor” value was found to be 0.075 µM and the “LD90 of etoposide with DNA-PK inhibitor” value stood at 0.9 µM.

As for bleomycin, the “GI50, in the presence of DNA-PK inhibitor” value in data set [1] (100 μM 1-(2-hydroxy-4-morpholin-4-yl-phenyl)-ethanone) is on record as 3×10^−2 units/mL. In addition, the “GI50, chemotherapeutic drug alone” value in data set [1] (without DNA-PK inhibitor) is 2×10^−1 units/mL.
